Laboratory results taken from patent US12612525B2, “Amine compound, reactive coalescing agent, coating composition, coating layer and related methods” (Agency for Science, Technology and Research, priority 2020, dated 2026).
Read-outs that look alike come from different tables or passages of the source.

Key:
[1] = Boiling point determination of ACAs; assay type: physicochemical
Procedure: Amine based reactive coalescing agents were synthesized via an atom efficient aza-Michael addition reaction of secondary amine to different acrylate/acrylamide monomers such as 2-hydroxyethyl acrylate, 2-hydroxypropyl acrylate, 2-ethylhexyl acrylate, ^nbutyl acrylate, and N-hydroxyethyl acrylamide etc (Table 1 and Scheme 2). The reactions were carried out neat or in water (in some cases, in the presence of 10% ceric ammonium nitrate (CAN) catalyst) at room temperature (RT)-80° C. to yield 80% to 95% conversion. Finally, the ACAs were purified by column chromatography and characterized by ^1H-NMR and ^13C-NMR spectroscopy, and elemental microanalysis (as will be shown in Examples 3.1 to 3.5). Other characterizations include determination of boiling point, volatility (% wt loss when heated at 110±5° C. for 1 hour as per USA EPA 24 method), and plasticizing effect, i.e. reduction of minimum film formation temperature (MFFT) of commercial latices.
Characterization studies were performed on the ACA examples to determine their boiling points and volatility (% wt loss when heated at 110±5° C. for 1 hour as per USA EPA 24 method).

[2] = Accelerated release study: coalescing agent blended with latex IRS-129, film heated at 110° C., 1H NMR; settings: 2 wt % in IRS-129 latex, dried 2 days at room temperature, powder heated at 110° C. in convection oven
Procedure: At first, ACA4 (2 wt % with respect to latex) was first blended with IRS-129 latex (containing —COOH groups) using dispermat (LC75-E) and the mixture was allowed to dry at room temperature for 2 days. Then, the polymer film was grounded to make powder and then heated at 110° C. in a convection oven, i.e. accelerated evaporation (as illustrated in FIG. 6). Accelerated evaporation was used in this study instead as natural release is time consuming and gas analysis is difficult.
Samples were collected time to time, dissolved in NMR solvent and analyzed by ^1H NMR spectroscopy (with 25 mg of sample, 0.8 mL of CDCl3, and 25 μL of DMF/CDCl3 as internal standard). High boiling commercial coalescing agent, 1-Phenoxy-2-propanol (PPH) (b.p. 243° C.) was used as control.

[3] = Stabilization of polymer on heating; settings: IRS-129 heated at 100° C. for 4 days
[4] = Water solubility of ACAs (Table 1); assay type: physicochemical; settings: in water
[5] = commercial coalescing agent used as control; cited from earlier work

| SMILES | b.p. [1] | Presence of coalescing agent in polymer film after heating (1H NMR) [2] | Stabilisation of latex polymer against oxidation/coloration [3] | Water Solubility [4] [%] | b.p. [5] [°C] |
| --- | --- | --- | --- | --- | --- |
| CCOCCOCCOC(=O)CCN(Cc1ccccc1)Cc1ccccc1 [ACA16] | 348-355 °C |  |  |  |  |
| C=C(C)C(=O)OCCOC(=O)CCN(Cc1ccccc1)Cc1ccccc1 [ACA15] | 251-254 °C |  |  |  |  |
| O=C(CCN(Cc1ccccc1)Cc1ccccc1)OCCO [ACA4] | 292-297 °C | remain present even after 4 days of heating | helps to stabilise or reduce oxidation/coloration of the polymer | <0.06 |  |
| CC(O)COc1ccccc1 (centres unmarked) [PPH, 1-Phenoxy-2-propanol, reference compound] |  | completely evaporated out from the polymer after 2 days of heating |  |  | 243 |
